Test results as given in patent publication US20190241569A1, “3-(ARYL OR HETEROARYL) METHYLENEINDOLIN-2-ONE DERIVATIVES AS INHIBITORS OF CANCER STEM CELL PATHWAY KINASES FOR THE TREATMENT OF CANCER” (Boston Biomedical, Inc., priority 2013, published 2019).
Like-named read-outs stand apart in the source and are kept apart here.

Tests used:
Type in all cases: cell-based
FaDu CSC = assay: Cancer stem cells, Cell Titer-Glo 72 hours (Test Example 3); settings: Homo sapiens, FaDu, 72 h
p-AMPK Thr172 = assay: Kinase inhibition, Western blot in HeLa cells (Test Example 5); settings: Homo sapiens, 6 hours, DMSO = 100, read-out: p-AMPK Relative Intensity (%)
Description: (§1) HeLa cells were treated with 5 uM of the indicated compound for 6 hours. Following compound incubation, cells were washed twice with ice-cold PBS and lysed in lysis buffer (50 mM HEPES, pH 7.5, 1% Nonidet P40, 150 mM NaCl, 1 mM EDTA, 1× protease inhibitor cocktail (Promega)). 30 micrograms of soluble protein was separated by SDS-PAGE and transferred to PVDF membranes. Primary antibodies against p-AMPK Thr172, p-RPS6 Ser235/236, p-RPS6 Ser240/244, and Tubulin (Cell Signaling Technology) were used. The antigen-antibody complexes were visualized by enhanced chemiluminescence (BioRad). The results are shown below in Tables 17A-17E.

p-RPS6 Ser235/236 = assay: as above; settings: Homo sapiens, 6 hours, DMSO = 100, read-out: p-RPS6 Ser235/236 Relative Intensity (%)
Description: as §1

p-RPS6 Ser240/244 = assay: as above; settings: Homo sapiens, 6 hours, DMSO = 100, read-out: p-RPS6 Ser240/244 Relative Intensity (%)
Description: as §1

ACHN CSC = assay: Cancer stem cells, Cell Titer-Glo 72 hours (Test Example 3); settings: Homo sapiens, ACHN, 72 h
A549 CSC = assay: as above; settings: Homo sapiens
ACHN = assay: Bulk cancer cells, Cell Titer-Glo 72 hours (Test Example 2); settings: Homo sapiens, ACHN, 72 h
Description: (§2) Tubes of 3× drug (60 uM in 500 uL complete media) were prepared from 5 mM stock solutions in DMSO. […] To treat cells, 50 uL of drug from the dilution plate was removed and added to the cell plates. […] Cells were harvested 72 hours after drug addition using Cell Titer-Glo (Promega) and luminescence measured on a plate reader.

FaDu = assay: as above; settings: Homo sapiens
Description: as §2

A549 = assay: as above; settings: Homo sapiens
Description: as §2

| IC50 (FaDu CSC) [nM] | IC50 (ACHN CSC) [nM] | IC50 (A549 CSC) [nM] | IC50 (ACHN) [nM] | IC50 (FaDu) [nM] | IC50 (A549) [nM] | Structure (SMILES) | activity at 5 µM (p-AMPK Thr172; 5 uM) [%] | activity at 5 µM (p-RPS6 Ser235/236; 5 uM) [%] | activity at 5 µM (p-RPS6 Ser240/244; 5 uM) [%] | activity at 5 µM (p-AMPK Thr172; 5 uM compound, Western blot) [%] | activity at 5 µM (p-RPS6 Ser235/236; 5 uM compound, Western blot) [%] | activity at 5 µM (p-RPS6 Ser240/244; 5 uM compound, Western blot) [%] |
| --- | --- | --- | --- | --- | --- | --- | --- | --- | --- | --- | --- | --- |
| 1030 | 390 | 1220 | 11600 | 4740 | 26300 | Cc1[nH]c(/C=C2\C(=O)Nc3cc(-c4csc(-c5ccccc5)n4)ccc32)c(C)c1C(=O)N1CCN(C)CC1 [Example 8] | 150 | 33 | 73 | – | – | – |
| 1260 | 280 | 1570 | 3200 | 3750 | 1960 | CCN(CC)CCNC(=O)c1c(C)[nH]c(/C=C2\C(=O)Nc3c2cccc3-c2csc(-c3ccccc3)n2)c1C [Example 9] | 144 | 2 | 32 | – | – | – |
| 2990 | 500 | 4190 | 15200 | 5410 | 5410 | Cc1[nH]c(/C=C2\C(=O)Nc3c2cccc3-c2csc(-c3ccccc3)n2)c(C)c1C(=O)N1CCN(C)CC1 [Example 10] | 122 | 2 | 32 | – | – | – |
| 8090 | 1650 | – | 2970 | 3550 | 7490 | CCN(CC)CCNC(=O)c1c(C)[nH]c(/C=C2\C(=O)Nc3cc(-c4oc(-c5ccccc5)nc4C)ccc32)c1C [Example 37] | 151 | 4 | 43 | – | – | – |
| 1600 | 500 | – | – | – | – | Cc1nc(-c2ccccc2)oc1-c1ccc2c(c1)NC(=O)/C2=C\c1[nH]c(C)c(C(=O)N2CCN(C)CC2)c1C [Example 38] | 103 | 2 | 21 | – | – | – |
| 270 | – | 4280 | 1640 | 1180 | 4740 | CCN(CC)CCNC(=O)c1c(C)[nH]c(/C=C2\C(=O)Nc3ccc(-c4nc(-c5ccccc5)cs4)cc32)c1C [Example 51, (Z)-N-(2-(diethylamino)ethyl)-2,4-dimethyl-5-((2-oxo-5-(4-phenylthiazol-2-yl)indolin-3-ylidene)methyl)-1H-pyrrole-3-carboxamide] | 12 | 21 | 64 | – | – | – |
| 1410 | 250 | 8250 | 3660 | 3090 | 4300 | CCN(CC)CCNC(=O)c1c(C)[nH]c(/C=C2\C(=O)Nc3ccc(-c4ccc(-c5ccccc5)o4)cc32)c1C [Example 56, (Z)-N-(2-(diethylamino)ethyl)-2,4-dimethyl-5-((2-oxo-5-(5-phenylfuran-2-yl)indolin-3-ylidene)methyl)-1H-pyrrole-3-carboxamide] | 144 | 19 | 64 | – | – | – |
| 110 | 970 | 620 | 1370 | 1370 | 1740 | CCN(CC)CCNC(=O)c1c(C)[nH]c(/C=C2\C(=O)Nc3ccc(-c4csc(-c5ccccc5)n4)nc32)c1C [Example 118] | 35 | 5 | 42 | – | – | – |
| 170 | 400 | 2470 | 1520 | 1730 | 1430 | Cc1[nH]c(/C=C2\C(=O)Nc3ccc(-c4csc(-c5ccccc5)n4)nc32)c(C)c1C(=O)NCCN1CCCC1 [Example 119] | 41 | 13 | 51 | – | – | – |
| 1850 | 500 | 6990 | 1380 | 700 | 3060 | CCN(CC)CCNC(=O)c1c(C)[nH]c(/C=C2\C(=O)Nc3ccc(-c4csc(-c5ccc(O)cc5)n4)cc32)c1C [Example 126] | 47 | 79 | 88 | – | – | – |
| 480 | 50 | 1700 | 1640 | 1580 | 1340 | Cc1cc(C)c(/C=C2\C(=O)Nc3ccc(-c4csc(C5CCCNC5)n4)cc32)[nH]1 (centres unmarked) [Example 140] | 69 | 6 | 34 | – | – | – |
| 220 | – | 2480 | 520 | 690 | 700 | COC(=O)c1c(C)[nH]c(/C=C2\C(=O)Nc3ccc(-c4csc(C5CCNCC5)n4)cc32)c1C [Example 144] | 79 | 70 | 83 | – | – | – |
| 4810 | 650 | 3790 | 5380 | 2720 | 2020 | CCN(CC)CCNC(=O)c1c(C)[nH]c(/C=C2\C(=O)Nc3ccc(-c4ccc(-c5ccccc5)cn4)cc32)c1C [Example 197] | 118 | 61 | 82 | – | – | – |
| 4310 | 1060 | 3900 | 1310 | 2820 | 840 | CCN(CC)CCNC(=O)c1c(C)[nH]c(/C=C2\C(=O)Nc3ccc(-c4cccnc4)cc32)c1C [Example 210] | 8 | 1 | 31 | – | – | – |
| 2960 | 260 | 3000 | 1120 | 2550 | 1400 | Cc1cc(C)c(/C=C2\C(=O)Nc3ccc(-c4ccc5cn[nH]c(=O)c5c4)cc32)[nH]1 [Example 240] | 39 | 1 | 24 | – | – | – |
| 12200 | 16200 | 30300 | 19800 | 19600 | 13100 | Cc1cc(C)c(/C=C2\C(=O)Nc3cccc(-c4ccncc4)c32)[nH]1 [Example 272] | – | – | – | 75 | 50 | 47 |
| – | 18900 | 20200 | 20400 | 16400 | 16600 | Cc1cc(C)c(/C=C2\C(=O)Nc3cccc(-c4ccc5cc[nH]c5c4)c32)[nH]1 [Example 273] | – | – | – | 27 | 36 | 35 |
| – | – | 43400 | 28300 | 28400 | 24400 | COc1ccc(-c2cccc3c2NC(=O)/C3=C\c2[nH]c(C)cc2C)cn1 [Example 274] | – | – | – | 91 | 63 | 59 |
| – | 17500 | 34700 | 21900 | 20800 | 17700 | COc1ncc(-c2cccc3c2NC(=O)/C3=C\c2[nH]c(C)cc2C)cn1 [Example 275] | – | – | – | 96 | 57 | 54 |
| – | 32000 | 32000 | 16000 | 26400 | 21200 | Cc1cncc(-c2cccc3c2NC(=O)/C3=C\c2[nH]c(C)cc2C)c1 [Example 280] | – | – | – | 103 | 74 | 75 |
| 6730 | 10900 | 27500 | 16400 | 36300 | 21500 | CCN(CC)CCNC(=O)c1c(C)[nH]c(/C=C2\C(=O)Nc3c2cccc3-c2cncnc2)c1C [Example 282] | – | – | – | 60 | 71 | 72 |

| Structure (SMILES) | IC50 (FaDu CSC) [nM] | IC50 (ACHN CSC) [nM] | IC50 (A549 CSC) [nM] | IC50 (ACHN) [nM] | IC50 (FaDu) [nM] | IC50 (A549) [nM] | activity at 5 µM (p-AMPK Thr172; 5 uM) [%] | activity at 5 µM (p-RPS6 Ser235/236; 5 uM) [%] | activity at 5 µM (p-RPS6 Ser240/244; 5 uM) [%] | activity at 5 µM (p-AMPK Thr172; 5 uM compound, Western blot) [%] | activity at 5 µM (p-RPS6 Ser235/236; 5 uM compound, Western blot) [%] | activity at 5 µM (p-RPS6 Ser240/244; 5 uM compound, Western blot) [%] |
| --- | --- | --- | --- | --- | --- | --- | --- | --- | --- | --- | --- | --- |
| CCN(CC)CCNC(=O)c1c(C)[nH]c(/C=C2\C(=O)Nc3cccc(-c4ccc(-c5ccccc5)cc4)c32)c1C [Example 109] | 280 | 330 | 4320 | 1600 | 1110 | 5090 | 8 | 2 | 23 | – | – | – |
| Cc1[nH]c(/C=C2\C(=O)Nc3cccc(-c4ccc(-c5ccccc5)cc4)c32)c(C)c1C(=O)N1CCN(C)CC1 [Example 110] | 1210 | – | 5760 | 14900 | 7560 | 21500 | 105 | 2 | 36 | – | – | – |
